The values that follow are results of earlier work, collected in patent publication US20130197188A1 (priority 2010, published 2013).

Series [1] deals with patients with acute decompensated heart failure (ADHF).
The subject of series [2] is patients with chronic congestive heart failure. Conditions: 15 ng/kg/min, 10-hour infusion; loss of action during infusion.
The test system of series [3] is patients with moderate asthma affliction. Conditions: brief infusion; healthy and diseased subjects.

Regarding urodilatin, in series [1] (15+30 ng/kg/min, compared with the placebo group, FIG. 4A), the “changes of the baseline in pulmonary capillary wedge pressure (PCWP)” value is “significant reductions”. Further, the “changes of the cardiac index (CI)” value in series [1] (15 and 30 ng/kg/min, FIG. 4C) is given as “significant increase”. Further, in series [1] (during infusion, slight increase of PCWP and partial drop of CI), the “persistence of the effect on PCWP and CI (rebound)” value was “slightly reversed after 6 to 8 hours”. Besides, the “symptoms, morbidity and mortality” value in series [1] (for all doses) is “significantly improved”. Also, in series [1] (intermediate dose applied), the “therapeutic window (dose)” value is given as “about 15 ng/kg/min”. Moreover, in series [2], the “central venous pressure (CVP)” value is recorded as “increases slightly already after 5 hours of infusion” and the urine flow entry is on record as “loss of action after 8 hours of infusion”. In addition, the effect on bronchoconstriction result in series [3] is “biologically relevant effectiveness”.
